The values below are quoted from earlier work in US20070224216A1, “Methods and Compositions Related to Antiviral Therapy Using Algae and Cyanobacteria” (priority 2004, published 2007).

Consider calcium spirulan, for which, in the data set on uninfected cells, the “toxicity to uninfected cells” value is given as “No toxicity”.
Consider heparin [oral heparins], for which the “plasma concentrations after oral administration” value (rat, in vivo, po) was “less than 1%”. The “thrombosis in the rat jugular vein model” value (rats, oral) is on record as “reduction of thrombosis”.
